Patent publication US20120239140A1, “MEDICAL PRODUCT COMPRISING AN ACTIVE COATING” (priority 2011, published 2012)
“Also recorded” adds a separate entry of the source.

Tests used:
[1] = tested on: pathologically altered human aortas; experiment: Ex vivo test on the aorta model (stent implanted in the explant, 2 weeks culture, PCR); assay type: cell-based
Description: The ex vivo test on pathologically altered human arteries and, in particular, on human aortas is a novel test model that makes it possible to better predict the clinical efficacy of biologically active coatings of medical implants such as stents or balloon catheters. Until now, it was not possible to perform this prediction in a reliable manner. […] These failures have engendered doubt in the benefit of the standard animal models, since, despite additional serial examinations and comprehensive screenings, the clinical efficacy of a new substance is uncertain even though preclinical results were positive. Until now there was no test model available that investigated the antiproliferative effect of new drugs in the complex biological environment of an arteriosclerotic vessel. On the basis of this novel test model, it is now possible to obtain mechanistic insights into the origin of a restenosis after stent implantation and to develop a therapy specific for the cause thereof
The special test procedure is based on the use of human pathological vascular tissue obtained directly within one hour after operation (vasectomy). Immediately after removal, the vascular preparations are placed in a sterile phosphate buffer (PBS) at room temperature, and are transported. […]

[2] = cited from earlier work
[3] = cited from earlier work; remark: listed apart in the source

| Compound | proliferation of smooth muscle cells (proliferation markers KI-67 and PCNA) ([1]; Pyr3 eluted from polymeric stent coating (embodiment 1) compared with uncoated 316L stent, after stent implantation with overexpansion, FIGS. 2 and 3) | total number of smooth muscle cells (expression of hSMTN and hAlpha-actin) ([1]; stent with Pyr3 (embodiment 1) compared with uncoated 316L stent, after stent implantation, FIG. 2) | efficacy in the experimental animal model [2] | antirestenotic effect / reduction of restenosis in clinical practice [3] |
| --- | --- | --- | --- | --- |
| CCOC(=O)c1cnn(-c2ccc(NC(=O)C(Cl)=C(Cl)Cl)cc2)c1C(F)(F)F [Pyr3, ethyl-1-(4-(2,3,3-trichloroacrylamide)phenyl)-5-(trifluoromethyl)-1H-pyrazole-4-carboxylate] | can be inhibited; also recorded: lower overall proliferation | does not lead to the otherwise common drop in total number of smooth muscle cells | – | – |
| CC(=O)Oc1ccccc1C(=O)O [aspirin] | – | – | good efficacy | did not reduce restenosis |
| CC[C@@H]1/C=C(\C)C[C@H](C)C[C@H](OC)[C@H]2O[C@@](O)(C(=O)C(=O)N3CCCC[C@H]3C(=O)O[C@H](/C(C)=C/[C@@H]3CC[C@H](Cl)[C@H](OC)C3)[C@H](C)[C@@H](O)CC1=O)[C@H](C)C[C@@H]2OC [pimecrolimus] | – | – | good efficacy | did not reduce restenosis |
| heparin | – | – | good efficacy | did not reduce restenosis |
